{"source": "ChEMBL document CHEMBL1141928", "about": "“Non-peptidic alpha(v)beta3 antagonists containing indol-1-yl propionic acids” (Bioorg Med Chem Lett, 2005)", "note": "pIC50: −log10 of the molar value."}
{"system": "not listed separately", "assay": "Clearance in mice after intravenous dosage", "type": "ADME, organism-based", "settings": "mouse, in vivo", "units": {"clearance": "mL/min/kg"}}
{"smiles": "O=C(O)CC(c1ccc2c(c1)OCO2)n1ccc2cc(OCCc3ccc4c(n3)NCCC4)ccc21", "note": "(centres undefined)", "clearance": 13}
{"system": "not listed separately", "assay": "Half life in mice after intravenous dosage", "type": "ADME, organism-based", "settings": "mouse, in vivo", "units": {"half-life": "h"}}
{"smiles": "O=C(O)CC(c1ccc2c(c1)OCO2)n1ccc2cc(OCCc3ccc4c(n3)NCCC4)ccc21", "note": "(centres undefined)", "half-life": 1.5}
{"system": "not listed separately", "assay": "Bioavailability in mice after […] dosage", "type": "ADME, organism-based", "settings": "mouse, in vivo", "units": {"bioavailability": "%"}}
{"smiles": "O=C(O)CC(c1ccc2c(c1)OCO2)n1ccc2cc(OCCc3ccc4c(n3)NCCC4)ccc21", "note": "(centres undefined)", "bioavailability": 73}
{"target": "Integrin alpha-V/beta-3 (Homo sapiens, UniProt P05106+P06756)", "sequence (P05106 27-788 limits assumed)": "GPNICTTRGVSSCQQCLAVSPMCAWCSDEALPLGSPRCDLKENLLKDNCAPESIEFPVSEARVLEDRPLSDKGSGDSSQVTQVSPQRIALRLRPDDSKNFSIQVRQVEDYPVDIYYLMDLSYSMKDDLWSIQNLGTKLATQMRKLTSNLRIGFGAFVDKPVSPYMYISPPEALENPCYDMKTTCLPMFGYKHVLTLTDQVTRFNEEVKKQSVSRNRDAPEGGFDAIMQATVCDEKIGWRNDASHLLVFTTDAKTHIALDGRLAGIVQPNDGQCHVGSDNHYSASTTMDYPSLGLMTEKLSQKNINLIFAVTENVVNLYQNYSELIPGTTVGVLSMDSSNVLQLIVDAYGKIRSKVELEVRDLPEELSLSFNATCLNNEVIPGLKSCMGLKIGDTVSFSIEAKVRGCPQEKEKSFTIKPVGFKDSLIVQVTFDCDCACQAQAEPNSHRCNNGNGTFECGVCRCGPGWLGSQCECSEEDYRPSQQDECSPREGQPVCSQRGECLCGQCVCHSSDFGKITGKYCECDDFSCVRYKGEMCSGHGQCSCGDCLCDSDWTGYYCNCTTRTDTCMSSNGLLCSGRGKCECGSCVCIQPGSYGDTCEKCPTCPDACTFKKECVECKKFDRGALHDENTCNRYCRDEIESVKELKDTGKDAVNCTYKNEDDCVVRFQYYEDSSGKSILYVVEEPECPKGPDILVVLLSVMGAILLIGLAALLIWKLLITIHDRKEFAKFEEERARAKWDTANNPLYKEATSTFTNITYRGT", "sequence (P06756 31-889 limits assumed)": "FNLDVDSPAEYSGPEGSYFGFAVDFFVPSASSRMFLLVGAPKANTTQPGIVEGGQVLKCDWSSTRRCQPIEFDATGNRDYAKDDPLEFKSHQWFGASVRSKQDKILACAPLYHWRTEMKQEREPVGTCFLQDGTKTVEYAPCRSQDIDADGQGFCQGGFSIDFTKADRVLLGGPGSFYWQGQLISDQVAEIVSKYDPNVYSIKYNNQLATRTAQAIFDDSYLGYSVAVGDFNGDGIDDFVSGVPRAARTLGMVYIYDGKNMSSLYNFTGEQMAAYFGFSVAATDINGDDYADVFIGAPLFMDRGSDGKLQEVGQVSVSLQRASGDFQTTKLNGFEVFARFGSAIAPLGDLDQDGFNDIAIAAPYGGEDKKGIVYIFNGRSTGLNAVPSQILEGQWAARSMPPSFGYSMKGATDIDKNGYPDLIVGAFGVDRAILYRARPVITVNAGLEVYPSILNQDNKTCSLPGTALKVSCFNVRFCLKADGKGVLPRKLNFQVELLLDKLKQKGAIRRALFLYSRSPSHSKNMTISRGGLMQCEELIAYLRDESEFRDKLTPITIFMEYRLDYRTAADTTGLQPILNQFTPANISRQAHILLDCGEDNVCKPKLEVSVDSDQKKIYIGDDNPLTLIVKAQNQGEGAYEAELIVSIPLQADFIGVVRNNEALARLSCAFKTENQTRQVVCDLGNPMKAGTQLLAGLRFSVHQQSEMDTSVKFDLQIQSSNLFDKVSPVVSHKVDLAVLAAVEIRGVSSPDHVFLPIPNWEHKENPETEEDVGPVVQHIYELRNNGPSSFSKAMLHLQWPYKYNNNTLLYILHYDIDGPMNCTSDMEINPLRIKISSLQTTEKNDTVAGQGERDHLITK", "sequence (P06756 891-1048 limits assumed)": "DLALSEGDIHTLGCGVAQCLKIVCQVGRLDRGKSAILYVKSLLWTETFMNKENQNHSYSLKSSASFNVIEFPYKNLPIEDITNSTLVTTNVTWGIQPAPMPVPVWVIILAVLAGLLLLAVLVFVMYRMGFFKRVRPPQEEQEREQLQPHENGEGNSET", "assay": "Inhibitory concentration against alphaV-beta3 integrin", "type": "protein-complex assay", "settings": "not given"}
{"smiles": "O=C(O)c1ccccc1-n1ccc2cc(OCCCNc3ccccn3)ccc21", "pIC50": "< 4.70"}
{"smiles": "CCCC(CC(=O)O)n1ccc2cc(CCCc3ccc4c(n3)NCCC4)ccc21", "note": "(centres undefined)", "pIC50": 7.64}
{"smiles": "CCCC(CC(=O)O)n1ccc2cc(NC(=O)Cc3ccc4c(n3)NCCC4)ccc21", "note": "(centres undefined)", "pIC50": 7.11}
{"smiles": "O=C(O)C(Cc1ccccc1)Cn1ccc2cc(OCCCNc3ccccn3)ccc21", "note": "(centres undefined)", "pIC50": 5.72}
{"smiles": "O=C(O)CC(c1ccccn1)n1ccc2cc(OCCc3ccc4c(n3)NCCC4)ccc21", "note": "(centres undefined)", "pIC50": 8.92}
{"smiles": "CCCC(Cn1ccc2cc(OCCCNc3ccccn3)ccc21)C(=O)O", "note": "(centres undefined)", "pIC50": 5.70}
{"smiles": "O=C(O)CC(c1ccc2c(c1)OCO2)n1ccc2cc(OCCc3ccc4c(n3)NCCO4)ccc21", "note": "(centres undefined)", "pIC50": 8.10}
{"smiles": "COc1cccc(C(CC(=O)O)n2ccc3cc(OCCc4ccc5c(n4)NCCC5)ccc32)c1", "note": "(centres undefined)", "pIC50": 9.10}
{"smiles": "COc1ccccc1C(CC(=O)O)n1ccc2cc(OCCc3ccc4c(n3)NCCC4)ccc21", "note": "(centres undefined)", "pIC50": 8.96}
{"smiles": "CC(Cn1ccc2cc(OCCCNc3ccccn3)ccc21)C(=O)O", "note": "(centres undefined)", "pIC50": 6.34}
{"smiles": "O=C(O)CC(c1ccccc1)n1ccc2cc(OCCONC3=NCCN3)ccc21", "note": "(centres undefined)", "pIC50": 6.70}
{"smiles": "O=C(O)c1ccc(-n2ccc3cc(OCCCNc4ccccn4)ccc32)cc1", "pIC50": "< 4.70"}
{"smiles": "O=C(O)CC(c1ccc(F)cc1)n1ccc2cc(OCCc3ccc4c(n3)NCCC4)ccc21", "note": "(centres undefined)", "pIC50": 9.15}
{"smiles": "COc1ccc(C(CC(=O)O)n2ccc3cc(OCCc4ccc5c(n4)NCCC5)ccc32)cc1", "note": "(centres undefined)", "pIC50": 9.15}
{"smiles": "O=C(O)CC(c1ccccc1)n1ccc2cc(OCCc3ccc4c(n3)NCCC4)ccc21", "note": "(centres undefined)", "pIC50": 9.00}
{"smiles": "O=C(O)CC(c1ccc2c(c1)OCO2)n1ccc2cc(OCCc3ccc4c(n3)NCCC4)ccc21", "note": "(centres undefined)", "pIC50": 9.42}
{"smiles": "CNc1cccc(CCOc2ccc3c(ccn3CCC(=O)O)c2)n1", "pIC50": 7.44}
{"smiles": "CS(=O)(=O)c1ccc(C(CC(=O)O)n2ccc3cc(OCCc4ccc5c(n4)NCCC5)ccc32)cn1", "note": "(centres undefined)", "pIC50": 9.52}
{"smiles": "O=C(O)CC(c1cccnc1)n1ccc2cc(OCCc3ccc4c(n3)NCCC4)ccc21", "note": "(centres undefined)", "pIC50": 9.60}
{"smiles": "CS(=O)(=O)c1cncc(C(CC(=O)O)n2ccc3cc(OCCc4ccc5c(n4)NCCC5)ccc32)c1", "note": "(centres undefined)", "pIC50": 9.34}
{"smiles": "CCCC(CC(=O)O)n1ccc2cc(OCCc3ccc4c(n3)NCCC4)ccc21", "note": "(centres undefined)", "pIC50": 8.30}
{"smiles": "COc1cncc(C(CC(=O)O)n2ccc3cc(OCCc4ccc5c(n4)NCCC5)ccc32)c1", "note": "(centres undefined)", "pIC50": 9.60}
{"smiles": "O=C(O)CC(c1cccc2ccccc12)n1ccc2cc(OCCc3ccc4c(n3)NCCC4)ccc21", "note": "(centres undefined)", "pIC50": 7.43}
{"smiles": "O=C(O)CC(c1cnc2ccccc2c1)n1ccc2cc(OCCc3ccc4c(n3)NCCC4)ccc21", "note": "(centres undefined)", "pIC50": 9.42}
{"smiles": "O=C(O)CC(c1cccc(Cl)c1)n1ccc2cc(OCCc3ccc4c(n3)NCCC4)ccc21", "note": "(centres undefined)", "pIC50": 9.30}
{"smiles": "N#Cc1cncc(C(CC(=O)O)n2ccc3cc(OCCc4ccc5c(n4)NCCC5)ccc32)c1", "note": "(centres undefined)", "pIC50": 9.59}
{"smiles": "O=C(O)CC(c1ccncc1)n1ccc2cc(OCCc3ccc4c(n3)NCCC4)ccc21", "note": "(centres undefined)", "pIC50": 9.05}
{"smiles": "O=C(O)CC(c1cccnc1)n1ccc2cc(OCC(F)(F)c3ccc4c(n3)NCCC4)ccc21", "note": "(centres undefined)", "pIC50": 6.89}
{"smiles": "O=C(O)CC(c1ccc2ccccc2c1)n1ccc2cc(OCCc3ccc4c(n3)NCCC4)ccc21", "note": "(centres undefined)", "pIC50": 7.43}
{"smiles": "O=C(O)CC(c1ccccc1Cl)n1ccc2cc(OCCc3ccc4c(n3)NCCC4)ccc21", "note": "(centres undefined)", "pIC50": 7.26}
{"smiles": "O=C(O)CC(c1ccc(-c2ccccc2)cc1)n1ccc2cc(OCCc3ccc4c(n3)NCCC4)ccc21", "note": "(centres undefined)", "pIC50": 7.40}
